Results: ChEMBL document CHEMBL1201862, “PubChem BioAssay data set” (2004)
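All cell lines were grown in 96-well plates and treated with compound for 48 hours. At the GI50, growth is halved.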 Active and inactive are the calls of the source. Cut-off read from the data, not from the text of the source: active = GI50 up to about 1.1 µM and inactive = higher.

Assays:
Assay in all cases: inhibition of tumour cell growth, NCI panel, 48 h
EKVX = test system: EKVX
IGROV-1 = test system: IGROV-1
NCI-H460 = test system: NCI-H460
U-251 = test system: U-251
HOP-62 = test system: HOP-62
RPMI-8226 = test system: RPMI-8226
ACHN = test system: ACHN
CCRF-CEM = test system: CCRF-CEM
MOLT-4 = test system: MOLT-4
SF-295 = test system: SF-295
COLO 205 = test system: COLO 205
Hs-578T = test system: Hs-578T
UO-31 = test system: UO-31
SK-MEL-28 = test system: SK-MEL-28
MDA-MB-435 = test system: MDA-MB-435
HCT-15 = test system: HCT-15
K562 = test system: K562
HOP-92 = test system: HOP-92
HT-29 = test system: HT-29
A549 = test system: A549
UACC-257 = test system: UACC-257
NCI-H522 = test system: NCI-H522
NCI-H23 = test system: NCI-H23
HCC 2998 = test system: HCC 2998
RXF 393 = test system: RXF 393
SF-539 = test system: SF-539
KM12 = test system: KM12
DU-145 = test system: DU-145
SW-620 = test system: SW-620
MDA-N = test system: MDA-N
TK-10 = test system: TK-10
SK-MEL-5 = test system: SK-MEL-5
SK-MEL-2 = test system: SK-MEL-2
MCF7 = test system: MCF7
SR = test system: SR
SF-268 = test system: SF-268
UACC-62 = test system: UACC-62
SNB-75 = test system: SNB-75
NCI-H226 = test system: NCI-H226
OVCAR-4 = test system: OVCAR-4
HCT-116 = test system: HCT-116
OVCAR-8 = test system: OVCAR-8
PC-3 = test system: PC-3
M14 = test system: M14
SNB-19 = test system: SNB-19
OVCAR-5 = test system: OVCAR-5
OVCAR-3 = test system: OVCAR-3
HL-60 = test system: HL-60
LOX IMVI = test system: LOX IMVI
T47D = test system: T47D
BT-549 = test system: BT-549
NCI/ADR-RES = test system: NCI/ADR-RES
Malme-3M = test system: Malme-3M
SN12C = test system: SN12C
786-0 = test system: 786-0
MDA-MB-231 = test system: MDA-MB-231
SK-OV-3 = test system: SK-OV-3
CAKI-1 = test system: CAKI-1

Measured: GI50

O=C(NN=C1NCCN1)c1ccco1
inactive: EKVX > 100 µM | IGROV-1 > 100 µM | NCI-H460 > 100 µM | U-251 > 100 µM | HOP-62 > 100 µM | RPMI-8226 > 100 µM | ACHN > 100 µM | CCRF-CEM > 100 µM | MOLT-4 > 100 µM | SF-295 > 100 µM | COLO 205 > 100 µM | Hs-578T > 100 µM | UO-31 > 100 µM | SK-MEL-28 > 100 µM | MDA-MB-435 > 100 µM | K562 > 100 µM | HOP-92 > 100 µM | HT-29 > 100 µM | A549 > 100 µM | UACC-257 > 100 µM | NCI-H522 > 100 µM | NCI-H23 > 100 µM | HCC 2998 > 100 µM | RXF 393 > 100 µM | SF-539 > 100 µM | KM12 > 100 µM | DU-145 > 100 µM | SW-620 > 100 µM | MDA-N > 100 µM | TK-10 > 100 µM | SK-MEL-5 > 100 µM | SK-MEL-2 > 100 µM | MCF7 > 100 µM | SR > 100 µM | SF-268 > 100 µM | UACC-62 > 100 µM | SNB-75 > 100 µM | NCI-H226 62.4 µM | OVCAR-4 > 100 µM | HCT-116 > 100 µM | OVCAR-8 > 100 µM | PC-3 > 100 µM | M14 > 100 µM | SNB-19 > 100 µM | OVCAR-5 > 100 µM | OVCAR-3 > 100 µM | HL-60 > 100 µM | LOX IMVI > 100 µM | T47D > 100 µM | BT-549 > 100 µM | NCI/ADR-RES > 100 µM | Malme-3M > 100 µM | SN12C > 100 µM | 786-0 > 100 µM | MDA-MB-231 > 100 µM | SK-OV-3 > 100 µM
> 100 µM: HCT-15

CCn1c(-c2ccc(F)cc2)nc2c1C(=O)c1ccccc1C2=O
inactive: EKVX > 100 µM | IGROV-1 > 100 µM | NCI-H460 > 100 µM | U-251 > 100 µM | HOP-62 > 100 µM | RPMI-8226 > 100 µM | ACHN > 100 µM | CCRF-CEM > 100 µM | MOLT-4 > 100 µM | SF-295 > 100 µM | COLO 205 > 100 µM | Hs-578T > 100 µM | SK-MEL-28 > 100 µM | MDA-MB-435 > 100 µM | K562 > 100 µM | HOP-92 > 100 µM | HT-29 75.5 µM | A549 > 100 µM | UACC-257 > 100 µM | NCI-H522 > 100 µM | NCI-H23 > 100 µM | HCC 2998 > 100 µM | RXF 393 54 µM | SF-539 > 100 µM | KM12 > 100 µM | DU-145 > 100 µM | SW-620 > 100 µM | MDA-N > 100 µM | TK-10 > 100 µM | SK-MEL-5 > 100 µM | MCF7 > 100 µM | SR > 100 µM | SF-268 > 100 µM | UACC-62 > 100 µM | SNB-75 > 100 µM | NCI-H226 91 µM | OVCAR-4 > 100 µM | HCT-116 > 100 µM | OVCAR-8 > 100 µM | PC-3 > 100 µM | M14 71 µM | SNB-19 > 100 µM | OVCAR-5 > 100 µM | OVCAR-3 33.8 µM | HL-60 > 100 µM | T47D > 100 µM | BT-549 > 100 µM | NCI/ADR-RES > 100 µM | Malme-3M 45.1 µM | SN12C > 100 µM | 786-0 > 100 µM | MDA-MB-231 > 100 µM | SK-OV-3 20.7 µM
> 100 µM: HCT-15

CN1CC=C(C#CC(C)(C)O)CC1
> 37.5 µM: HCT-15
inactive: EKVX > 37.5 µM | IGROV-1 > 37.5 µM | NCI-H460 > 37.5 µM | U-251 > 37.5 µM | HOP-62 > 37.5 µM | RPMI-8226 > 37.5 µM | ACHN > 37.5 µM | CCRF-CEM > 37.5 µM | MOLT-4 > 37.5 µM | SF-295 > 37.5 µM | COLO 205 > 37.5 µM | Hs-578T > 37.5 µM | UO-31 > 37.5 µM | SK-MEL-28 > 37.5 µM | MDA-MB-435 > 37.5 µM | K562 > 37.5 µM | HT-29 > 37.5 µM | A549 > 37.5 µM | UACC-257 > 37.5 µM | NCI-H23 > 37.5 µM | HCC 2998 > 37.5 µM | RXF 393 > 37.5 µM | KM12 > 37.5 µM | DU-145 > 37.5 µM | SW-620 > 37.5 µM | MDA-N > 37.5 µM | TK-10 > 37.5 µM | SK-MEL-5 > 37.5 µM | SK-MEL-2 > 37.5 µM | MCF7 > 37.5 µM | SR > 37.5 µM | SF-268 > 37.5 µM | UACC-62 > 37.5 µM | SNB-75 > 37.5 µM | NCI-H226 > 37.5 µM | OVCAR-4 > 37.5 µM | HCT-116 > 37.5 µM | OVCAR-8 > 37.5 µM | PC-3 > 37.5 µM | M14 > 37.5 µM | SNB-19 > 37.5 µM | OVCAR-5 > 37.5 µM | OVCAR-3 > 37.5 µM | HL-60 > 37.5 µM | LOX IMVI > 37.5 µM | T47D > 37.5 µM | BT-549 > 37.5 µM | NCI/ADR-RES > 37.5 µM | Malme-3M 30.8 µM | SN12C > 37.5 µM | 786-0 > 37.5 µM | MDA-MB-231 > 37.5 µM | CAKI-1 > 37.5 µM | SK-OV-3 > 37.5 µM

CC(=O)OCC1CCC(=C2C(=O)OC(C)(C)OC2=O)N1 (stereo not given)
> 100 µM: HCT-15
inactive: EKVX > 100 µM | IGROV-1 > 100 µM | NCI-H460 > 100 µM | U-251 > 100 µM | HOP-62 > 100 µM | RPMI-8226 > 100 µM | CCRF-CEM > 100 µM | MOLT-4 > 100 µM | SF-295 > 100 µM | COLO 205 > 100 µM | Hs-578T > 100 µM | UO-31 > 100 µM | SK-MEL-28 > 100 µM | MDA-MB-435 > 100 µM | K562 > 100 µM | HOP-92 > 100 µM | HT-29 > 100 µM | A549 > 100 µM | UACC-257 > 100 µM | NCI-H522 > 100 µM | NCI-H23 > 100 µM | HCC 2998 > 100 µM | RXF 393 > 100 µM | SF-539 > 100 µM | KM12 > 100 µM | DU-145 > 100 µM | SW-620 > 100 µM | MDA-N > 100 µM | TK-10 > 100 µM | SK-MEL-5 > 100 µM | SK-MEL-2 > 100 µM | MCF7 > 100 µM | SR > 100 µM | SF-268 > 100 µM | UACC-62 > 100 µM | SNB-75 > 100 µM | NCI-H226 > 100 µM | OVCAR-4 > 100 µM | HCT-116 > 100 µM | OVCAR-8 > 100 µM | PC-3 > 100 µM | M14 > 100 µM | SNB-19 > 100 µM | OVCAR-3 > 100 µM | HL-60 > 100 µM | LOX IMVI > 100 µM | T47D > 100 µM | BT-549 > 100 µM | NCI/ADR-RES > 100 µM | Malme-3M > 100 µM | SN12C > 100 µM | 786-0 > 100 µM | MDA-MB-231 > 100 µM | CAKI-1 > 100 µM | SK-OV-3 > 100 µM

CCN(CC)CCC(=O)c1ccc(Oc2ccccc2)cc1
inactive: EKVX 20.8 µM | IGROV-1 17.1 µM | U-251 17.9 µM | HOP-62 27.5 µM | RPMI-8226 5.79 µM | ACHN 15.8 µM | CCRF-CEM 22.1 µM | MOLT-4 20 µM | SF-295 55.3 µM | COLO 205 17.7 µM | Hs-578T 18.2 µM | SK-MEL-28 17.5 µM | MDA-MB-435 20.7 µM | K562 35.3 µM | HOP-92 15.8 µM | HT-29 19.1 µM | A549 > 100 µM | UACC-257 17.2 µM | NCI-H23 25.1 µM | HCC 2998 17.6 µM | RXF 393 18.9 µM | SF-539 18.6 µM | KM12 13.1 µM | DU-145 27.7 µM | SW-620 17.1 µM | MDA-N 16.5 µM | TK-10 14.2 µM | SK-MEL-2 97.7 µM | MCF7 17.9 µM | SR 39.4 µM | SF-268 20.8 µM | UACC-62 15.9 µM | SNB-75 19.5 µM | NCI-H226 > 100 µM | OVCAR-4 23.9 µM | HCT-116 17.9 µM | OVCAR-8 39.7 µM | PC-3 39 µM | M14 38.1 µM | SNB-19 18.9 µM | OVCAR-5 20.7 µM | OVCAR-3 19.7 µM | LOX IMVI 16.8 µM | T47D 19 µM | BT-549 18.7 µM | NCI/ADR-RES 21.9 µM | Malme-3M 15.1 µM | SN12C 17.6 µM | 786-0 15.6 µM | MDA-MB-231 20.7 µM | CAKI-1 16.7 µM | SK-OV-3 > 100 µM
17.4 µM: HCT-15
